# Reference: patent publication US12226417B2, “Fatty liver disease treatment using glucocorticoid and mineralocorticoid receptor antagonists” (Corcept Therapeutics, Inc., priority 2014, dated 2025)
# Key:
# [1] = molecular target: T1, glucocorticoid receptor (GR) (Homo sapiens, UniProt P04150); assay: GR reporter gene assay using SW1353/MMTV-5 cells; assay type: cell-based
# T1 construct: contains endogenous glucocorticoid receptors; endogenous in cells; host or cells: SW1353/MMTV-5 (human chondrosarcoma, stably transfected with pMAMneo-Luc reporter)
# T1 sequence (P04150 1-777): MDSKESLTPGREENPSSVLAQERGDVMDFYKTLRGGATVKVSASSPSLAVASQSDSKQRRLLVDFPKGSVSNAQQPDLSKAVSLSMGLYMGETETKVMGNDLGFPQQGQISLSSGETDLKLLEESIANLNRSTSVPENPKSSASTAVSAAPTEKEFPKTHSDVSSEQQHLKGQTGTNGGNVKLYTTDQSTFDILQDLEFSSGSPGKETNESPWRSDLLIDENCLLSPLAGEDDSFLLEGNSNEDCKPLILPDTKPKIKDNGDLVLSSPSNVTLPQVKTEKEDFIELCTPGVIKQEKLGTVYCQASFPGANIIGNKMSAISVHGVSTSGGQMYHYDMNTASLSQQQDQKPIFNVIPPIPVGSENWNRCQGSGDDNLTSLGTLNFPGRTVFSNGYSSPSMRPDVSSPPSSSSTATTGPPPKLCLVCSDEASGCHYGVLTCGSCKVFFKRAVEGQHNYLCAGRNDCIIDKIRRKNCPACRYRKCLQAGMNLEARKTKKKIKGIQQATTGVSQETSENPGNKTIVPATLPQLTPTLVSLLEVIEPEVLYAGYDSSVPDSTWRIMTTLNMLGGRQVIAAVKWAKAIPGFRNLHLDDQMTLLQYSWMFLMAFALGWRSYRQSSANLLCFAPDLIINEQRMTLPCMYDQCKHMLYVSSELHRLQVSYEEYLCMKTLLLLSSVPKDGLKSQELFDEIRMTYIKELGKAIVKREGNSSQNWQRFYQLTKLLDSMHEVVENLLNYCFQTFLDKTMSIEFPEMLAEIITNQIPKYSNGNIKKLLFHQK
# Experimental: SW1353/MMTV-5 is an adherent human chondrosarcoma cell line that contains endogenous glucocorticoid receptors. It was transfected with a plasmid (pMAMneo-Luc) encoding firefly luciferase located behind a glucocorticoid-responsive element (GRE) derived from a viral promoter (long terminal repeat of mouse mammary tumor virus). A stable cell line SW1353/MMTV-5 was selected with geneticin, which was required to maintain this plasmid.
# SW1353/MMTV-5 cells were distributed in 96-well plates and incubated in medium (without geneticin) for 24 hrs.
# [2] = molecular target: T2, mineralocorticoid receptor (MR) (Homo sapiens, UniProt P08235); assay: MR reporter gene assay using T47D/MMTV-5 cells; assay type: cell-based
# T2 construct: containing endogenous mineralocorticoid and progesterone receptors (PR); endogenous in cells; host or cells: T47D/MMTV-5 (human breast carcinoma, stably transfected with pMAMneo-Luc reporter)
# T2 sequence (P08235 1-984): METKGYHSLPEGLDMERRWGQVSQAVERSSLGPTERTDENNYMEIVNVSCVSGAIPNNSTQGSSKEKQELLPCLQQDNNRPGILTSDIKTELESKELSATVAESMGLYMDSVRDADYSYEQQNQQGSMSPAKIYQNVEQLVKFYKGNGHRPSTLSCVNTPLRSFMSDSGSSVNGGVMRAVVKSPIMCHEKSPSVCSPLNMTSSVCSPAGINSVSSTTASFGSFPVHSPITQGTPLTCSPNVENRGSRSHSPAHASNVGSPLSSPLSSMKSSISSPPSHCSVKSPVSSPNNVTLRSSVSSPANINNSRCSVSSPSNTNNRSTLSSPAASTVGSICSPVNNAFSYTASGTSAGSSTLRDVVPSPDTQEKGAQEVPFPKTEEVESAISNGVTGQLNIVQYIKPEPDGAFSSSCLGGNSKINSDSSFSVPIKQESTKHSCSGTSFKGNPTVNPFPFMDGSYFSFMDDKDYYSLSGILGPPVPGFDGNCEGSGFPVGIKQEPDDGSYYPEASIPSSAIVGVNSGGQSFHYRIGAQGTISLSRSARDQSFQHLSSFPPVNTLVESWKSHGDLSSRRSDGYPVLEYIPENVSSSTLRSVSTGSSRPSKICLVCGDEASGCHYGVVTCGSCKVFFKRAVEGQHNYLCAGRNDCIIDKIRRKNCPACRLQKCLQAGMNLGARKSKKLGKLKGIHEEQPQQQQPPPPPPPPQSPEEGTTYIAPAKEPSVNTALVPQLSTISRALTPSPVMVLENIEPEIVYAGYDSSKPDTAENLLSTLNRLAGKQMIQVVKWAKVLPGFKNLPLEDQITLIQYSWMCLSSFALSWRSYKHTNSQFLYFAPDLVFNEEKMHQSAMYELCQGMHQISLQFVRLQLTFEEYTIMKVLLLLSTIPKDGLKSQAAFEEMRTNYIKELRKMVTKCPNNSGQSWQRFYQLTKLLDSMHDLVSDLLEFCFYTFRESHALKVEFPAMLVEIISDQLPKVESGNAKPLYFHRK
# Experimental: (§1) As described for the SW1353 cell line above, T47D cells were transfected with the same pMAMneo-Luc plasmid, and stable lines were selected with geneticin.
# (§2) T47D/MMTV-5 calls were distributed in 96-well plates (100 μl) in RPMI640 medium+10% charcoal stripped FCS. The cells were incubated for 24 hours in a CO2 oven.
# [3] = molecular target: T3, progesterone receptor (PR) (Homo sapiens, UniProt P06401); assay: PR reporter gene assay using T47D/MMTV-5 cells; assay type: cell-based; details: antagonist mode, 50 nM progesterone
# T3 construct: containing endogenous mineralocorticoid and progesterone receptors (PR); endogenous in cells; host or cells: T47D/MMTV-5 (human breast carcinoma, stably transfected with pMAMneo-Luc reporter)
# T3 sequence (P06401 1-933): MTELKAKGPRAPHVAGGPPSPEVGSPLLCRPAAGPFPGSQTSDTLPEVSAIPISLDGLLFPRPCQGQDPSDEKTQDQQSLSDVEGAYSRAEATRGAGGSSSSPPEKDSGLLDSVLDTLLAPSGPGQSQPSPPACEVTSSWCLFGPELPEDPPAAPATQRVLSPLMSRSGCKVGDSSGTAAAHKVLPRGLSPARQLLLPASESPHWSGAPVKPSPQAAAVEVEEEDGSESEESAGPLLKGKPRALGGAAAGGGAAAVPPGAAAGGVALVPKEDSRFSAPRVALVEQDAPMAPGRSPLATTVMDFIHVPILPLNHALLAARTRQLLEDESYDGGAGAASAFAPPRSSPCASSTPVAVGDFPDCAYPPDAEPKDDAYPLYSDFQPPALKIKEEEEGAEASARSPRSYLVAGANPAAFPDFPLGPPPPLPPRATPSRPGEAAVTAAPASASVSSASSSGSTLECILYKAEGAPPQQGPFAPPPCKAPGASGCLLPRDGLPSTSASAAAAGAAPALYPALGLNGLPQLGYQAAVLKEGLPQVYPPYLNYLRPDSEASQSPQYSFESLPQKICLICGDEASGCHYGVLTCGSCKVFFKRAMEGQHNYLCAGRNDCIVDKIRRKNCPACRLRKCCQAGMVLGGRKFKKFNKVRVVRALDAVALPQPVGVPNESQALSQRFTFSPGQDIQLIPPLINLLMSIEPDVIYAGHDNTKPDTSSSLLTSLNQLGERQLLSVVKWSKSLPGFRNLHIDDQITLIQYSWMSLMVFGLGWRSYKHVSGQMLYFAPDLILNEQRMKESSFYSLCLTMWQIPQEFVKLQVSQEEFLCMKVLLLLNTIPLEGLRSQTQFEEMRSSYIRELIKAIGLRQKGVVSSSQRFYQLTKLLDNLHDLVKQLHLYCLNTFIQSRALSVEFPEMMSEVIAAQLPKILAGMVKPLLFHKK
# Experimental: as §1, §2
# [4] = test system: C57B16/J mice given a high fat diet; assay: Determination of liver lipids in mice fed a high fat diet (Oil Red O staining); assay type: in vivo, mouse; details: high fat diet (60% fat) three weeks; for fatty liver compared to the controls: 60 mg/kg/day in the food
# Experimental: C57B16/J mice (n=8 per group) were given a high fat diet (60% fat) for three weeks and then sacrificed. Livers were collected and weighed. Liver slices were prepared and analysed for lipid levels by Oil Red 0 staining (FIGS. 1 and 3). One group of mice received Compound 1 mixed in the food (60 mg/kg/day) whilst another group of mice received vehicle mixed in the food. […] Compound 1 has GR antagonist activity and some MR antagonist activity.
# human recombinant GR = molecular target: T4, human recombinant GR (Homo sapiens, UniProt P04150); assay: GR protein:protein interaction assay (DiscoveRx, CHO-K1, PGC1α); assay type: cell-based
# T4 construct: β-galactosidase enzyme fragment (complementation partner); host or cells: CHO-K1
# T4 sequence (P04150 1-777): T1 sequence (P04150 1-777)
# Source text: (§3) Protein:protein interaction assays were used to determine the ability of test compounds to act as antagonists of the glucocorticoid receptor and/or mineralocorticoid receptor. These assays utilize a commercial assay platform provided by DiscoveRx Corp. (Fremont, CA). DiscoveRx technology is based on β-galactosidase enzyme fragment complementation using a luminogenic substrate. Briefly, Chinese hamster ovary cells (CHO-K1) have been engineered to express either human recombinant GR or MR together with a steroid responsive coactivator protein (SRCP) called PGC1α (peroxisome proliferator activated receptor gamma coactivator lα). The assay measures the net outcome of GR or MR activation, i.e., nuclear translocation from the cytoplasm and interaction of the GR or MR with the coactivator PGC1α in the cell nucleus. The assay can be configured in both agonist and antagonist modes.
# (§4) The cells (100 μl) were plated into 96 well plates and placed in a 37° C., 5% CO2 incubator for 24 hours. After removing the cells from the incubator, 5 μl of test compound or vehicle was added to each well, and the plates were incubated for 1 hour at 37° C., 5% CO2. […] The detection reagent was added, 55 μl per well, and the plates were incubated at room temperature in the dark without mixing. The plates were read for luminescence using an EnVision® plate reader (3 hour read).
# human recombinant MR = molecular target: T5, human recombinant MR (Homo sapiens, UniProt P08235); assay: MR protein:protein interaction assay (DiscoveRx, CHO-K1, PGC1α); assay type: cell-based
# T5 construct: β-galactosidase enzyme fragment (complementation partner); host or cells: CHO-K1
# T5 sequence (P08235 1-984): T2 sequence (P08235 1-984)
# Source text: as §3
# as §4, with “EnVision® (Perkin Elmer, Walthan, MA)” for “EnVision®”
Ki [1] [nM],Ki [2] [nM],activity in progesterone receptor reporter gene assay [3],Ki (human recombinant GR) [nM],Ki (human recombinant MR) [nM],Structure (SMILES),fatty liver compared to the controls [4],"lipid droplets in livers (Oil Red O staining) ([4]; 60 mg/kg/day mixed in the food, versus vehicle control)"
24,148,inactive,118,125,"O=c1[nH]c(=O)c(Cc2cccc(C(F)(F)F)c2)c([C@H]2CC[C@H](c3ccccc3)CC2)[nH]1 [Compound 1, (E)-6-(4-phenylcyclohexyl)-5-(3-trifluoromethylbenzyl)-1H-pyrimidine-2,4-dione]",did not induce fatty liver,no or low level of lipid droplets
–,–,–,–,–,"CC#C[C@]1(O)CC[C@H]2[C@@H]3CCC4=CC(=O)CCC4=C3[C@@H](c3ccc(N(C)C)cc3)C[C@@]21C [mifepristone, reference compound]",increased fatty liver compared to the controls,–
